{
  "source": "patent US10772893B2",
  "about": "“2-(morpholin-4-yl)-1,7-naphthyridines” (BAYER PHARMA AKTIENGESELLSCHAFT, priority 2014, dated 2020)",
  "data": [
    {"system": "HeLa cells", "test": "Proliferation assay, crystal violet staining", "conditions": "Homo sapiens, 96 h, read-out: Inhibition of HeLa cell proliferation", "units": {"IC50": "nM"}, "experimental": "After 24 hours, the cells of one plate (zero plate) were dyed with crystal violet (see below), whereas the medium of the other plates was replaced with fresh culture medium (200 μl) to which the test substances were added in various concentrations (0 μM, and also in the range of 0.001-10 μM; the final concentration of the solvent dimethyl sulphoxide was 0.1 or 0.5%). The cells were incubated for 4 days in the presence of the test substances. […] After washing the fixed cells three times with water, the plates were dried at room temperature. The cells were stained by adding 100 μl/measurement point of a 0.1% strength crystal violet solution (pH adjusted to pH 3 by adding acetic acid). After washing the cells three times with water, the plates were dried at room temperature. The dye was dissolved by adding 100 μl/measurement point of a 10% strength acetic acid solution. […] The percentage change in cell growth was calculated by normalizing the measured values to the absorbance values of the zero plate (=0%) and the absorbance of the untreated (0 W) cells (=100%). The IC50 values were determined by means of a four parameter fit.", "values": [
      {"smiles": "COP(=O)(OC)c1ccc(-c2cc(N3CCOCC3)nc3c(-c4ccn[nH]4)nccc23)cc1", "note": "[Example 9, dimethyl {4-[2-(morpholin-4-yl)-8-(1H-pyrazol-5-yl)-1,7-naphthyridin-4-yl]phenyl}phosphonate]", "IC50": 1010}
    ]},
    {"system": "HeLa cells", "test": "Proliferation assay, crystal violet staining", "conditions": "Homo sapiens, 96 h, read-out: Inhibition of HeLa cell proliferation, HeLa cells, 4 days incubation", "units": {"IC50": "nM"}, "values": [
      {"smiles": "C[C@@H]1COCCN1c1cc(C(C)(O)C(C)(C)C)c2ccnc(-c3ccn[nH]3)c2n1", "note": "(stereo partly drawn) [Example 283, 3,3-dimethyl-2-{2-[(3R)-3-methylmorpholin-4-yl]-8-(1H-pyrazol-5-yl)-1,7-naphthyridin-4-yl}butan-2-ol]", "IC50": 146},
      {"smiles": "CCCn1nccc1-c1cc(N2CCOC[C@H]2C)nc2c(-c3ccn[nH]3)nccc12", "note": "[Example 117, 2-[(3R)-3-methylmorpholin-4-yl]-4-(1-propyl-1H-pyrazol-5-yl)-8-(1H-pyrazol-5-yl)-1,7-naphthyridine]", "IC50": 225},
      {"smiles": "C[C@@H]1COCCN1c1cc(-c2cncc3ccccc23)c2ccnc(-c3ccn[nH]3)c2n1", "note": "[Example 237, 4-(isoquinolin-4-yl)-2-[(3R)-3-methylmorpholin-4-yl]-8-(1H-pyrazol-5-yl)-1,7-naphthyridine]", "IC50": 528},
      {"smiles": "Nc1cccc(-c2cc(N3CCOCC3)nc3c(-c4ccn[nH]4)nccc23)c1", "note": "[Example 335, 3-[2-(morpholin-4-yl)-8-(1H-pyrazol-5-yl)-1,7-naphthyridin-4-yl]aniline]", "IC50": 2960},
      {"smiles": "c1cncc(-c2cc(N3CCOCC3)nc3c(-c4ccn[nH]4)nccc23)c1", "note": "[Example 350, 2-(morpholin-4-yl)-8-(1H-pyrazol-5-yl)-4-(pyridin-3-yl)-1,7-naphthyridine]", "IC50": "> 3000"},
      {"smiles": "Cc1ccc(-c2cc(N3CCOC[C@H]3C)nc3c(-c4ccn[nH]4)nccc23)c(F)n1", "note": "[Example 93, 4-(2-fluoro-6-methylpyridin-3-yl)-2-[(3R)-3-methylmorpholin-4-yl]-8-(1H-pyrazol-5-yl)-1,7-naphthyridine]", "IC50": 179},
      {"smiles": "Cc1nn(C)c(C)c1-c1cc(N2CCOC[C@H]2C)nc2c(-c3ccn[nH]3)nccc12", "note": "[Example 258, 2-[(3R)-3-methylmorpholin-4-yl]-8-(1H-pyrazol-5-yl)-4-(1,3,5-trimethyl-1H-pyrazol-4-yl)-1,7-naphthyridine]", "IC50": 263},
      {"smiles": "CCC(O)(CC)c1cc(N2CCOC[C@H]2C)nc2c(-c3ccn[nH]3)nccc12", "note": "[Example 129, 3-{2-[(3R)-3-methylmorpholin-4-yl]-8-(1H-pyrazol-5-yl)-1,7-naphthyridin-4-yl}pentan-3-ol]", "IC50": 686},
      {"smiles": "Cc1ccc(-c2cc(N3CCOC[C@H]3C)nc3c(-c4ccn[nH]4)nccc23)s1", "note": "[Example 100, 2-[(3R)-3-methylmorpholin-4-yl]-4-(5-methyl-2-thienyl)-8-(1H-pyrazol-5-yl)-1,7-naphthyridine]", "IC50": 950},
      {"smiles": "Cc1c(-c2cc(N3CCOCC3)nc3c(-c4ccn[nH]4)nccc23)cnn1C", "note": "[Example 272, 4-(1,5-dimethyl-1H-pyrazol-4-yl)-2-(morpholin-4-yl)-8-(1H-pyrazol-5-yl)-1,7-naphthyridine]", "IC50": 648},
      {"smiles": "C[C@@H]1COCCN1c1cc(-c2cnc(S(C)(=O)=O)c(F)c2)c2ccnc(-c3ccn[nH]3)c2n1", "note": "[Example 147, 4-[5-fluoro-6-(methylsulfonyl)pyridin-3-yl]-2-[(3R)-3-methylmorpholin-4-yl]-8-(1H-pyrazol-5-yl)-1,7-naphthyridine]", "IC50": 953},
      {"smiles": "O=C1CCCN1c1cc(N2CCOCC2)nc2c(-c3ccn[nH]3)nccc12", "note": "[Example 215, 1-[2-(morpholin-4-yl)-8-(1H-pyrazol-5-yl)-1,7-naphthyridin-4-yl]pyrrolidin-2-one]", "IC50": "> 3000"},
      {"smiles": "CCn1nc(C)cc1-c1cc(N2CCOC[C@H]2C)nc2c(-c3ccn[nH]3)nccc12", "note": "[Example 113, 4-(1-ethyl-3-methyl-1H-pyrazol-5-yl)-2-[(3R)-3-methylmorpholin-4-yl]-8-(1H-pyrazol-5-yl)-1,7-naphthyridine]", "IC50": 122},
      {"smiles": "Cc1cscc1-c1cc(N2CCOC[C@H]2C)nc2c(-c3ccn[nH]3)nccc12", "note": "[Example 101, 2-[(3R)-3-methylmorpholin-4-yl]-4-(4-methyl-3-thienyl)-8-(1H-pyrazol-5-yl)-1,7-naphthyridine]", "IC50": 341},
      {"smiles": "c1ccc(-c2ccccc2-c2cc(N3CCOCC3)nc3c(-c4ccn[nH]4)nccc23)cc1", "note": "[Example 345, 4-(biphenyl-2-yl)-2-(morpholin-4-yl)-8-(1H-pyrazol-5-yl)-1,7-naphthyridine]", "IC50": "> 3000"},
      {"smiles": "Cc1nn(C)c(C)c1-c1cc(N2CCOCC2)nc2c(-c3ccn[nH]3)nccc12", "note": "[Example 273, 2-(morpholin-4-yl)-8-(1H-pyrazol-5-yl)-4-(1,3,5-trimethyl-1H-pyrazol-4-yl)-1,7-naphthyridine]", "IC50": 999},
      {"smiles": "C[C@@H]1COCCN1c1cc(-c2ccns2)c2ccnc(-c3ccn[nH]3)c2n1", "note": "[Example 121, 2-[(3R)-3-methylmorpholin-4-yl]-8-(1H-pyrazol-5-yl)-4-(1,2-thiazol-5-yl)-1,7-naphthyridine]", "IC50": 352},
      {"smiles": "C[C@@H]1COCCN1c1cc(-c2ccnn2CCF)c2ccnc(-c3ccn[nH]3)c2n1", "note": "[Example 159, 4-[1-(2-fluoroethyl)-1H-pyrazol-5-yl]-2-[(3R)-3-methylmorpholin-4-yl]-8-(1H-pyrazol-5-yl)-1,7-naphthyridine]", "IC50": 61.6},
      {"smiles": "O=C(NC1CC1)c1cccc(-c2cc(N3CCOCC3)nc3c(-c4ccn[nH]4)nccc23)c1", "note": "[Example 330, N-cyclopropyl-3-[2-(morpholin-4-yl)-8-(1H-pyrazol-5-yl)-1,7-naphthyridin-4-yl]benzamide]", "IC50": "> 3000"},
      {"smiles": "C[C@@H]1COCCN1c1cc(-c2ccncc2F)c2ccnc(-c3ccn[nH]3)c2n1", "note": "[Example 230, 4-(3-fluoropyridin-4-yl)-2-[(3R)-3-methylmorpholin-4-yl]-8-(1H-pyrazol-5-yl)-1,7-naphthyridine]", "IC50": 380},
      {"smiles": "C[C@@H]1COCCN1c1cc(N=S(C)(=O)c2ccc(F)cc2)c2ccnc(-c3ccn[nH]3)c2n1", "note": "(stereo partly drawn) [Example 138, 4-{[(4-fluorophenyl)(methyl)oxido-λ^6-sulfanylidene]amino}-2-[(3R)-3-methylmorpholin-4-yl]-8-(1H-pyrazol-5-yl)-1,7-naphthyridine]", "IC50": 619},
      {"smiles": "c1cc(-c2cc(N3CCOCC3)nc3c(-c4ccn[nH]4)nccc23)c2cc[nH]c2c1", "note": "[Example 294, 4-(1H-indol-4-yl)-2-(morpholin-4-yl)-8-(1H-pyrazol-5-yl)-1,7-naphthyridine]", "IC50": 2450},
      {"smiles": "COc1cc(-c2cc(N3CCOCC3)nc3c(-c4ccn[nH]4)nccc23)ccn1", "note": "[Example 351, 4-(2-methoxypyridin-4-yl)-2-(morpholin-4-yl)-8-(1H-pyrazol-5-yl)-1,7-naphthyridine]", "IC50": 3000},
      {"smiles": "C[C@@H]1CN[C@@H](C)CN1c1cc(N2CCOCC2)nc2c(-c3ccn[nH]3)nccc12", "note": "(relative stereo) [Example 178, 4-[(trans)-2,5-dimethylpiperazin-1-yl]-2-(morpholin-4-yl)-8-(1H-pyrazol-5-yl)-1,7-naphthyridine]", "IC50": "> 3000"},
      {"smiles": "CC(C)Cn1nccc1-c1cc(N2CCOC[C@H]2C)nc2c(-c3ccn[nH]3)nccc12", "note": "[Example 146, 4-(1-isobutyl-1H-pyrazol-5-yl)-2-[(3R)-3-methylmorpholin-4-yl]-8-(1H-pyrazol-5-yl)-1,7-naphthyridine]", "IC50": 1110},
      {"smiles": "CC(C)(O)c1cc(N2CCOCC2)nc2c(-c3ccn[nH]3)nccc12", "note": "[Example 173, 2-[2-(morpholin-4-yl)-8-(1H-pyrazol-5-yl)-1,7-naphthyridin-4-yl]propan-2-ol]", "IC50": "> 3000"},
      {"smiles": "CC(C)n1nccc1-c1cc(N2CCOC[C@H]2C)nc2c(-c3ccn[nH]3)nccc12", "note": "[Example 124, 4-(1-isopropyl-1H-pyrazol-5-yl)-2-[(3R)-3-methylmorpholin-4-yl]-8-(1H-pyrazol-5-yl)-1,7-naphthyridine]", "IC50": 156},
      {"smiles": "C[C@@H]1COCCN1c1cc(-c2cc(Cl)cnc2F)c2ccnc(-c3ccn[nH]3)c2n1", "note": "[Example 229, 4-(5-chloro-2-fluoropyridin-3-yl)-2-[(3R)-3-methylmorpholin-4-yl]-8-(1H-pyrazol-5-yl)-1,7-naphthyridine]", "IC50": 447},
      {"smiles": "COc1ccc(F)cc1-c1cc(N2CCOCC2)nc2c(-c3ccn[nH]3)nccc12", "note": "[Example 339, 4-(5-fluoro-2-methoxyphenyl)-2-(morpholin-4-yl)-8-(1H-pyrazol-5-yl)-1,7-naphthyridine]", "IC50": "> 3000"},
      {"smiles": "Fc1cccc(-c2cc(N3CCOCC3)nc3c(-c4ccn[nH]4)nccc23)c1F", "note": "[Example 341, 4-(2,3-difluorophenyl)-2-(morpholin-4-yl)-8-(1H-pyrazol-5-yl)-1,7-naphthyridine]", "IC50": 1590},
      {"smiles": "C[C@@H]1COCCN1c1cc(-c2cncc(Cl)c2)c2ccnc(-c3ccn[nH]3)c2n1", "note": "[Example 130, 4-(5-chloropyridin-3-yl)-2-[(3R)-3-methylmorpholin-4-yl]-8-(1H-pyrazol-5-yl)-1,7-naphthyridine]", "IC50": 374},
      {"smiles": "COc1ccsc1-c1cc(N2CCOC[C@H]2C)nc2c(-c3ccn[nH]3)nccc12", "note": "[Example 235, 4-(3-methoxythiophen-2-yl)-2-[(3R)-3-methylmorpholin-4-yl]-8-(1H-pyrazol-5-yl)-1,7-naphthyridine]", "IC50": 950},
      {"smiles": "Cc1nnc(-c2cc(N3CCOC[C@H]3C)nc3c(-c4ccn[nH]4)nccc23)o1", "note": "[Example 136, 2-[(3R)-3-methylmorpholin-4-yl]-4-(5-methyl-1,3,4-oxadiazol-2-yl)-8-(1H-pyrazol-5-yl)-1,7-naphthyridine]", "IC50": 575},
      {"smiles": "C[C@@H]1COCCN1c1cc(-c2ccn(CC(C)(C)O)n2)c2ccnc(-c3ccn[nH]3)c2n1", "note": "[Example 161, 2-methyl-1-(3-{2-[(3R)-3-methylmorpholin-4-yl]-8-(1H-pyrazol-5-yl)-1,7-naphthyridin-4-yl}-1H-pyrazol-1-yl)propan-2-ol]", "IC50": 588},
      {"smiles": "COc1cccc(-c2cc(N3CCOCC3)nc3c(-c4ccn[nH]4)nccc23)c1", "note": "[Example 306, 4-(3-methoxyphenyl)-2-(morpholin-4-yl)-8-(1H-pyrazol-5-yl)-1,7-naphthyridine]", "IC50": "> 3000"},
      {"smiles": "Cc1nc(S(C)(=N)=O)ccc1-c1cc(N2CCOC[C@H]2C)nc2c(-c3ccn[nH]3)nccc12", "note": "(stereo partly drawn) [Example 116, 4-[2-methyl-6-(S-methylsulfonimidoyl)pyridin-3-yl]-2-[(3R)-3-methylmorpholin-4-yl]-8-(1H-pyrazol-5-yl)-1,7-naphthyridine]", "IC50": 284}
    ]}
  ]
}
